Measured values from patent US4761415A, “Dopamine-β-hydroxylase inhibitors” (SmithKline Beckman Corporation, priority 1986, dated 1988).
Where a name gives a salt, the structure may show the parent alone.

Legend:
[1] = inhibition of cytochrome P450-dependent mixed function oxidase catalyzed deethylation of ethoxycoumarin; assay type: in vitro ADME; conditions: read-out: P-450 IC50
Protocol: The compounds listed in Table I also were evaluated for their ability to inhibit cytochrome P450-dependent mixed function oxidase catalyzed deethylation of ethoxycoumarin by the procedure of […] and Poland, J. Pharmacol. Exp. Ther., 205, 596-605 (1978).

[2] = target: T1, dopamine-β-hydroxylase (DBH) (Bos taurus, UniProt P15101); experiment: biochemical; conditions: molar concentration at which DBH activity was halved
T1 sequence (P15101 1-610): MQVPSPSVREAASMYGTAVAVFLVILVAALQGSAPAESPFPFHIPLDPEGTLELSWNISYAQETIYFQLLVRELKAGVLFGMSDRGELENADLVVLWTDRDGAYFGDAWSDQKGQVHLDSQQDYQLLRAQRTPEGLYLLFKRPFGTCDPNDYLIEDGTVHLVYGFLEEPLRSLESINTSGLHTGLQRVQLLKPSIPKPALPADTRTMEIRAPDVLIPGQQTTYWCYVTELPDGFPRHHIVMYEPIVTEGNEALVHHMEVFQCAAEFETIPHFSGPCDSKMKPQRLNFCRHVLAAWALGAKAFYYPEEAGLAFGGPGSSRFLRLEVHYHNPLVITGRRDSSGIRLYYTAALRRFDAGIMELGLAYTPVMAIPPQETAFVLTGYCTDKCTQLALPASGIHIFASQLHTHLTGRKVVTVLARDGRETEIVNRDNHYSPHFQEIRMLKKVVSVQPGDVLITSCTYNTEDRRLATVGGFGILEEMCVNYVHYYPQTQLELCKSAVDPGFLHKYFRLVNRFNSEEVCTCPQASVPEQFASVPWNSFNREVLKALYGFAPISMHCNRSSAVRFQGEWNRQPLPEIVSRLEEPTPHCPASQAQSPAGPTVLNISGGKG
Protocol: J. J. Pisano, et al., Biochim. Biophys. Acta, 43, 566-568 (1960). Octopamine was assayed following sodium periodate oxidation to p-hydroxybenzaldehyde by measuring spectrophotometric absorbance at 330 nm.

DBH = conditions: cited from earlier work
[3] = Ehrreich et al., 1976; cited from earlier work
[4] = tested on: spontaneously hypertensive rats; experiment: mean arterial blood pressure in spontaneously hypertensive rats; assay type: in vivo, rat; conditions: 50 mg/kg intraperitoneally; for time to significant blood pressure reduction following treatment / blood pressure reduction (in words): compared to vehicle-treated controls; for blood pressure reduction (in words): within 30 minutes; for maximal blood pressure reduction: monitored for 260 minutes, indwelling cannulae in tail arteries
Protocol: Further, spontaneously hypertensive rats were treated with a suspension or solution of 3-mercapto-4-benzyl-5-[(4-methyl-piperazinyl)methyl]-1,2,4-triazole or 3-mercapto-4-(3-fluorobenzyl)-5[(4-methyl-1-piperazinyl)methyl]-1,2,4-triazole at a dose of 50 mg/kg intraperitoneally, and mean arterial blood pressure was monitored for 260 minutes using indwelling cannulae in the tail arteries. […] The maximal blood pressure reductions were approximately 25 and 40 mmHg, respectively, for each of the administered compounds.

[5] = Teresawa et al., Japan. Cir. J. 35, 339 (1971); cited from earlier work

Compound	IC50 [1] [µM]	IC50 [2] [µM]	DBH inhibition (in words, literature) (DBH)	also measured
Fc1cc(F)cc(Cn2ccnc2S)c1 [1-(3,5-difluorobenzyl)-2-mercapto imidazole, reference compound]	12	1.2	–	–
CN1CCN(Cc2nnc(S)n2Cc2ccccc2)CC1 [3-mercapto-4-benzyl-5-[(4-methyl-1-piperazinyl)methyl]-1,2,4-triazole hydrochloride]	700	90	–	–
O=C(O)c1ccc(CCC(Br)CBr)cn1 (stereo not shown) [5-(3,4-dibromobutyl)picolinic acid]	–	–	DBH inhibitors	–
O=C(O)c1ccc(CCCCCl)cn1 [5-(4-chlorobutyl) picolinic acid]	–	–	inhibit DBH	–
CN(C)C(=S)SCc1ccc(C(=O)O)nc1 [5-(dimethyldithiocarbamoylmethyl)picolinic acid]	–	–	DBH inhibitors	–
NOCc1ccccc1 [Benzyloxyamine, benzyloxyamine]	–	–	apparently act as competitive inhibitors	–
CCCCc1ccc(C(N)=O)nc1 [Bupicomide, 5-(n-butyl)picolinamine]	–	–	DBH inhibitor	antihypertensive activity [3]: has antihypertensive activity
CN1CCN(Cc2nnc(S)n2Cc2ccccc2)CC1 [Example 1, 3-Mercapto-4-benzyl-5-[(4-methyl-1-piperazinyl)methyl]-1,2,4-triazole]	–	–	–	time to significant blood pressure reduction following treatment [4]: ≤ 30 min; blood pressure reduction (in words) [4]: significant blood pressure reductions; maximal blood pressure reduction [4]: approximately 25 mmHg
CN1CCN(Cc2nnc(S)n2Cc2cccc(F)c2)CC1 [Example 2, 3-Mercapto-4-(3-fluorobenzyl)-5-[(4-methyl-1-piperazinyl)methyl]-1,2,4-triazole]	375	60	–	time to significant blood pressure reduction following treatment [4]: ≤ 30 min; blood pressure reduction (in words) [4]: significant blood pressure reductions; maximal blood pressure reduction [4]: ~40 mmHg
CN1CCN(Cc2nnc(S)n2Cc2cc(F)cc(F)c2)CC1 [Example 3, 3-Mercapto-4-(3,5-difluorobenzyl)-5-[(4-methyl-1-piperazinyl)methyl]-1,2,4-triazole]	350	50	–	–
CCCCc1ccc(C(=O)O)nc1 [Fusaric acid]	–	–	–	hepatotoxicity [5]: hepatotoxic
NNCc1ccccc1 [benzylhydrazine]	–	–	apparently act as competitive inhibitors	–
